Measured values reported in ChEMBL document CHEMBL5390216, “Development of small molecule inhibitors of natural killer group 2D receptor (NKG2D)” (Bioorg Med Chem Lett, 2023).

Target: T1, NKGD2-ULBP6 (Homo sapiens, UniProt P26718)
T1 sequence (P26718 whole entry): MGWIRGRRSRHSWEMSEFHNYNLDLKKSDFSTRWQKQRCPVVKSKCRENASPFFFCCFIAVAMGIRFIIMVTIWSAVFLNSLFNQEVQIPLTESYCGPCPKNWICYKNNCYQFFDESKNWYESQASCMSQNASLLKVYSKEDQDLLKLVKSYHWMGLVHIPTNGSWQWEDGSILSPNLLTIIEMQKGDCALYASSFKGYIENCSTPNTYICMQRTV
T1 sequence (Q5VY80 whole entry): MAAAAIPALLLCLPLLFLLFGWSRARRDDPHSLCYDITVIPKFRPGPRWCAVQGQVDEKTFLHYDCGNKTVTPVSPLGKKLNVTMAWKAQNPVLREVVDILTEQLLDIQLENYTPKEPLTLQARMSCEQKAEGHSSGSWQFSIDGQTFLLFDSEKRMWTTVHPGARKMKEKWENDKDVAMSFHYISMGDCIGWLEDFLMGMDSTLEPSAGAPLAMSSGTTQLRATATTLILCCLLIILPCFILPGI
Test: Inhibition of NKG2D (unknown origin)/ULBP6 (unknown origin) protein-protein interaction by cell-based TR-FRET assay

Structure (SMILES) | IC50 [nM]
CN(C)C(=O)C(NC(=O)c1cc(-c2ccnn2C2COC2)ccc1-c1ccc(C(F)(F)F)cc1)c1cccc(C(F)(F)F)c1 (racemic) | 1100
O=C(NC(C(=O)N1CC[C@H](CO)C1)c1cccc(C(F)(F)F)c1)c1ccccc1-c1ccc(C(F)(F)F)cc1 (stereo not given in full) | > 20000
CN(C)C(=O)C(NS(=O)(=O)c1ccccc1-c1ccc(C(F)(F)F)cc1)c1cccc(C(F)(F)F)c1 (stereo not given) | > 20000
Cc1n[nH]c(C)c1-c1ccc(-c2ccc(C(F)(F)F)cc2)c(C(=O)N[C@H](C(=O)N(C)C)c2cccc(C(F)(F)F)c2)c1 | 600
O=C(NCc1cccc(C(F)(F)F)c1)c1ccccc1-c1ccc(C(F)(F)F)cc1 | > 20000
CN(C)C(=O)[C@@H](NC(=O)c1cnccc1-c1ccc(C(F)(F)F)cc1)c1cc(Cl)c(Cl)c(C(F)(F)F)c1 | 200
CN(C)C(=O)C(NC(=O)c1ccccc1)c1cccc(C(F)(F)F)c1 (stereo not given) | > 20000
CN(C)C(=O)CNC(=O)c1ccccc1-c1ccc(C(F)(F)F)cc1 | > 20000
CN(C)C(=O)[C@@H](NC(=O)c1cc(C(=O)NS(C)(=O)=O)ccc1-c1ccc(C(F)(F)F)cc1)c1cccc(C(F)(F)F)c1 | 1700
CN(C)C(=O)[C@@H](NC(=O)c1ccccc1-c1ccc(C(F)(F)F)cc1)c1cccc(N2CC(CC(F)(F)F)C2)c1 | 3400
CN(C)C(=O)[C@@H](NC(=O)c1cnccc1-c1ccc(C(F)(F)F)cc1)c1cc(C(F)(F)F)cc(C(F)(F)F)c1 | 500
O=C(NC(C(=O)N1CCC[C@@H]1CO)c1cccc(C(F)(F)F)c1)c1ccccc1-c1ccc(C(F)(F)F)cc1 (stereo not given in full) | 8700

Second part, the compound after the results:

IC50 [nM] | Structure (SMILES)
700 | CN(C)C(=O)[C@@H](NC(=O)c1cnccc1-c1ccc(C(F)(F)F)cc1)c1cc(F)cc(C(F)(F)F)c1
800 | Cc1ccc([C@H](NC(=O)c2cnccc2-c2ccc(C(F)(F)F)cc2)C(=O)N(C)C)cc1C(F)(F)F
1400 | CN(C)C(=O)[C@@H](NC(=O)c1cnccc1-c1ccc(C(F)(F)F)cc1)c1cccc(C(F)(F)F)c1
4800 | CN(C)C(=O)[C@@H](NC(=O)c1ccncc1-c1ccc(C(F)(F)F)cc1)c1cccc(C(F)(F)F)c1
> 20000 | CN(C)C(=O)C(NC(=O)c1ccc(-c2ccc(C(F)(F)F)cc2)cc1)c1cccc(C(F)(F)F)c1 (stereo not given)
1500 | CN(C)C(=O)[C@@H](NC(=O)c1nnccc1-c1ccc(C(F)(F)F)cc1)c1cccc(C(F)(F)F)c1
1500 | CN(C)C(=O)[C@@H](NC(=O)c1cc(-c2nnn[nH]2)ccc1-c1ccc(C(F)(F)F)cc1)c1cccc(C(F)(F)F)c1
700 | CN(C)C(=O)[C@@H](NC(=O)c1cc(-c2ccnn2C)ccc1-c1ccc(C(F)(F)F)cc1)c1cccc(C(F)(F)F)c1
> 20000 | CN(C)C(=O)C(NC(=O)c1cccnc1-c1ccc(C(F)(F)F)cc1)c1cccc(C(F)(F)F)c1 (racemic)
300 | CN(C)C(=O)[C@@H](NC(=O)c1cnccc1-c1ccc(C(F)(F)F)cc1)c1ccc(Cl)c(C(F)(F)F)c1

Target: T2, NKGD2-MICA (Homo sapiens, UniProt P26718)
T2 sequence (P26718 whole entry): T1 sequence (P26718 whole entry)
T2 sequence (Q29983 whole entry): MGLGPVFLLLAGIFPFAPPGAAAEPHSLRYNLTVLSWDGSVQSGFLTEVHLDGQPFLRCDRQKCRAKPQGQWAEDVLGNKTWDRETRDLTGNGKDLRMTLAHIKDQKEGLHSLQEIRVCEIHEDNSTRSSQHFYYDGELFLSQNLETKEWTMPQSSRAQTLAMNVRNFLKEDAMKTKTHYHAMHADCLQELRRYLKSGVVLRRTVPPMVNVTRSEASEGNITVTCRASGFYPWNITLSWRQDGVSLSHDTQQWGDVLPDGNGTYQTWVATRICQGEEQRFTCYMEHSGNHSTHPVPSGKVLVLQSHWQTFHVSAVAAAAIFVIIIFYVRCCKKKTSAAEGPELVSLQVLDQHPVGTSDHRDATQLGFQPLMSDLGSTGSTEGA
Test: Inhibition of NKG2D (unknown origin)/MICA (unknown origin) protein-protein interaction by cell-based TR-FRET assay

Structure (SMILES) | IC50 [nM]
CN(C)C(=O)C(NC(=O)c1cc(-c2ccnn2C2COC2)ccc1-c1ccc(C(F)(F)F)cc1)c1cccc(C(F)(F)F)c1 (racemic) | 500
O=C(NC(C(=O)N1CC[C@H](CO)C1)c1cccc(C(F)(F)F)c1)c1ccccc1-c1ccc(C(F)(F)F)cc1 (stereo not given in full) | 10500
CN(C)C(=O)C(NS(=O)(=O)c1ccccc1-c1ccc(C(F)(F)F)cc1)c1cccc(C(F)(F)F)c1 (stereo not given) | > 20000
Cc1n[nH]c(C)c1-c1ccc(-c2ccc(C(F)(F)F)cc2)c(C(=O)N[C@H](C(=O)N(C)C)c2cccc(C(F)(F)F)c2)c1 | 400
O=C(NCc1cccc(C(F)(F)F)c1)c1ccccc1-c1ccc(C(F)(F)F)cc1 | > 20000
CN(C)C(=O)[C@@H](NC(=O)c1cnccc1-c1ccc(C(F)(F)F)cc1)c1cc(Cl)c(Cl)c(C(F)(F)F)c1 | 100
CN(C)C(=O)[C@@H](NC(=O)c1ccccc1-c1ccc(C(F)(F)F)cc1)c1ccc(Cl)c(C(F)(F)F)c1 | 500
CN(C)C(=O)C(NC(=O)c1ccccc1)c1cccc(C(F)(F)F)c1 (stereo not given) | > 20000
CN(C)C(=O)CNC(=O)c1ccccc1-c1ccc(C(F)(F)F)cc1 | > 20000
CN(C)C(=O)[C@@H](NC(=O)c1cc(C(=O)NS(C)(=O)=O)ccc1-c1ccc(C(F)(F)F)cc1)c1cccc(C(F)(F)F)c1 | 700
CN(C)C(=O)[C@@H](NC(=O)c1ccccc1-c1ccc(C(F)(F)F)cc1)c1cccc(N2CC(CC(F)(F)F)C2)c1 | 1600
CN(C)C(=O)[C@@H](NC(=O)c1cnccc1-c1ccc(C(F)(F)F)cc1)c1cc(C(F)(F)F)cc(C(F)(F)F)c1 | 200
O=C(NC(C(=O)N1CCC[C@@H]1CO)c1cccc(C(F)(F)F)c1)c1ccccc1-c1ccc(C(F)(F)F)cc1 (stereo not given in full) | 4000

More lines, now with the values ahead:

IC50 [nM] | Structure (SMILES)
200 | CN(C)C(=O)[C@@H](NC(=O)c1cnccc1-c1ccc(C(F)(F)F)cc1)c1cc(F)cc(C(F)(F)F)c1
300 | Cc1ccc([C@H](NC(=O)c2cnccc2-c2ccc(C(F)(F)F)cc2)C(=O)N(C)C)cc1C(F)(F)F
400 | CN(C)C(=O)[C@@H](NC(=O)c1cnccc1-c1ccc(C(F)(F)F)cc1)c1cccc(C(F)(F)F)c1
1600 | CN(C)C(=O)[C@@H](NC(=O)c1ccncc1-c1ccc(C(F)(F)F)cc1)c1cccc(C(F)(F)F)c1
> 20000 | CN(C)C(=O)C(NC(=O)c1ccc(-c2ccc(C(F)(F)F)cc2)cc1)c1cccc(C(F)(F)F)c1 (stereo not given)
400 | CN(C)C(=O)[C@@H](NC(=O)c1nnccc1-c1ccc(C(F)(F)F)cc1)c1cccc(C(F)(F)F)c1
500 | CN(C)C(=O)[C@@H](NC(=O)c1cc(-c2nnn[nH]2)ccc1-c1ccc(C(F)(F)F)cc1)c1cccc(C(F)(F)F)c1
300 | CN(C)C(=O)[C@@H](NC(=O)c1cc(-c2ccnn2C)ccc1-c1ccc(C(F)(F)F)cc1)c1cccc(C(F)(F)F)c1
> 20000 | CN(C)C(=O)C(NC(=O)c1cccnc1-c1ccc(C(F)(F)F)cc1)c1cccc(C(F)(F)F)c1 (racemic)
100 | CN(C)C(=O)[C@@H](NC(=O)c1cnccc1-c1ccc(C(F)(F)F)cc1)c1ccc(Cl)c(C(F)(F)F)c1
